One may read the IC50 as the concentration that gives 50% inhibition. Read a high IC50 as weaker potency.

This is an account of results in patent publication EP4420684A1, “DNA TOXIC DIMER COMPOUND AND CONJUGATE THEREOF” (Systimmune, Inc., priority 2022, dated 2023).

The test system of one test is SK-BR-3 tumor cells. Kind of test: In vitro activity test (MTS, 5 days), growth inhibition of SK-BR-3 cells. It is filed as cell-based. To be noted: Homo sapiens, 120 h. The protocol:
• Cells: derived from the Cell Bank of the Chinese Academy of Sciences; • Tumor cell culture medium: Gibco™; • Fetal Bovine Serum (FBS): BIOWEST™;
• Growth medium (with 10% FBS, Penicillin/streptomycin (100 U/mL); • Assay medium (with 1% FBS, Penicillin/streptomycin (100 U/mL);
The biosafety cabinet was turned on for UV light irradiation 30 min in advance, and subsequently ventilated for 3 minutes. The growth medium, assay medium, D-PBS and trypsin were preheated in a 37°C thermostatic water bath, after which the surface was sterilized with alcohol and placed in the biosafety cabinet. Cells with a confluence of ~80% (logarithmic growth phase) were selected and placed in a biosafety cabinet, old medium was aspirated off, rinsed with D-PBS, aspirated and discarded, digested with trypsin for 2-3 minutes, after which growth medium was added to terminate the trypsin, and centrifuged at 500 × g for 5 minutes. The centrifugation supernatant was aspirated off, and the cells were mixed with 4 mL of assay medium, and 100 uL of the cells were taken for counting (of which 50 uL of cytosol was taken out, and 50 uL of 0.4% cell solution was added to 50 µL of 0.4% Trypan Blue Stain and mix, count after mixing). Spread the plate according to the previously set cell number, 80 uL/well in 96-well plate, wells E11, F11, G11 only received 80 uL of detection medium, the wells on the edge received 200 uL of DPBS to seal the edge. After the cells are completely attached to the wall (usually at least 4 hours), the test samples were configured and diluted: 1.0 mL of 2.5 µM (5 ×Top Dose) test samples were configured with the assay medium and dispensed into the first column of the V-type 96-well plate, with 200 µL in each well; 180 µL of assay medium was added to the second through eighth columns, and 30 µL was added to the second column from the first column, and mixed up and down with a row gun for […]. The test medium was mixed up and down 10 times with a row gun, discard the gun tip, and the remaining test concentration points were operated sequentially to perform 7-fold gradient concentration dilution. […]
The MTS reagent was removed from the test samples after 5 days of action, thawed at room temperature and protected from light, vortexed and mixed thoroughly, and then 20 µL of Cell Titer One Solution Reagen MTS reagent was added along the side wall of the wells for every 100 µL of cell culture volume in a biosafety cabinet. […] After the end of the reaction, took out the 96-well plate, placed in the enzyme labeling instrument to detect the OD490 nm absorbance value, and performed the data recording, organization and storage.

The test system of the next test is N87 tumor cells. Kind of test: In vitro activity test (MTS, 5 days), growth inhibition of N87 cells. It is filed as cell-based. To be noted: 120 h.

Procedure for N87 tumor cells: The biosafety cabinet was turned on for UV light irradiation 30 min in advance, and subsequently ventilated for 3 minutes. The growth medium, assay medium, D-PBS and trypsin were preheated in a 37°C thermostatic water bath, after which the surface was sterilized with alcohol and placed in the biosafety cabinet. Cells with a confluence of ~80% (logarithmic growth phase) were selected and placed in a biosafety cabinet, old medium was aspirated off, rinsed with D-PBS, aspirated and discarded, digested with trypsin for 2-3 minutes, after which growth medium was added to terminate the trypsin, and centrifuged at 500 × g for 5 minutes. The centrifugation supernatant was aspirated off, and the cells were mixed with 4 mL of assay medium, and 100 uL of the cells were taken for counting (of which 50 uL of cytosol was taken out, and 50 uL of 0.4% cell solution was added to 50 µL of 0.4% Trypan Blue Stain and mix, count after mixing). Spread the plate according to the previously set cell number, 80 uL/well in 96-well plate, wells E11, F11, G11 only received 80 uL of detection medium, the wells on the edge received 200 uL of DPBS to seal the edge. […]

Take `COc1ccc(C2=CN3C(=O)c4cc(OC)c(OCC56CC(C(=O)N7C[C@@H](CCl)c8c7cc(O)c7cccc(C)c87)(C5)C6)cc4N=C[C@@H]3C2)cc1` [Compound A]: half-maximal inhibition in the test on SK-BR-3 tumor cells (IC50) required 0.52 nM.

With `COc1cc2c(cc1OCC13CC(C(=O)N4C[C@@H](CCl)c5c4cc(O)c4cccc(C)c54)(C1)C3)N=C[C@@H]1CC(c3ccc(NC(=O)CO)cc3)=CN1C2=O` [Compound B1], the IC50 was determined as 4.23 nM in the test on SK-BR-3 tumor cells and 5.03 nM in the test on N87 tumor cells.

Turning to `COc1cc2c(cc1OCCCCC(=O)N1C[C@@H](CCl)c3c1cc(O)c1cccc(C)c31)N=C[C@@H]1CC(c3ccc(NC(=O)CO)cc3)=CN1C2=O` [Compound C1], the IC50 with SK-BR-3 tumor cells is 8.67 nM; with N87 tumor cells, 9.68 nM.

In the case of `COc1cc2c(cc1OCCCCC(=O)N1C[C@@H](CCl)c3c1cc(O)c1cccc(C)c31)N=C[C@@H]1Cc3ccc(NC(=O)CO)cc3N1C2=O` [Compound D1], the results for the IC50 in the test on SK-BR-3 tumor cells and in the test with N87 tumor cells were 10.3 nM and 12.3 nM, respectively.
